# Source: patent publication US8524222B2, “Bacillus isolates and methods of their use to protect against plant pathogens and virus transmission” (Montana State University, priority 2006, dated 2013)
# Several values for one entry are separate records, joined by “and”; a condition that tells them apart may be missing. Equal values may be shown once.
# Assays:
# [1] = system: Chitinase; assay: Glycol chitin plate assay for chitinase activity (screening); type: in vivo, sugar beet; conditions: cumulative results, 6 days after treatment
# Method: (§1) The leaf penultimate to the oldest true leaf was treated with one of the Bacillus strains. […] The plants were kept at 28+/−2° C. for 6 days at which time the apoplastic proteins were collected as described by Klement (1965), with the following modification: a buffer containing 150 mM NaCl and 25 mM MES, pH 6.2, was substituted for distilled water. The proteins were quantified by Bradford reagent (Bio-Red) using bovine serum albumin as standards and frozen at −80° C. until analyzed.
# Apoplastic protein (0.009, 0.006, and 0.005 ug for each sample in replicates of 3) was added to wells in a 1% agarose gel containing 0.01% glycol chitin in a 14 cm diameter glass petri plate, along with chitinase standards (Streptomyces griseus, Sigma). The plates were incubated at 37° C. for 24 hours. Following incubation. 50 ml of 500 mM Tris-HCl (pH 8.9) containing 0.01°/fluorescent brightener was added to the plate for 10 min. The plate was then rinsed three times with distilled water, flooded with water, and allowed to destain in the dark for 2-24 hours. The non-fluorescent lytic zones on a fluorescent background were measured while the plate was on a 302 nm UV light source. Specific activity (mg of N-acetyl-D-glucosamine released/hr/mg of apoplastic protein) was determined by comparison of the lyric zone diameter of the standards and the apoplastic samples (Velasquez. 2002).
# [2] = system: NPR1; set-up: species or system sugar beet; conditions: in vivo
# [3] = system: B-1,3-glucanase; assay: B-1,3-glucanase specific activity of apoplastic protein (glucose release from laminarin); type: in vivo, sugar beet; conditions: distal leaves, six days post treatment
# Method: (§2) One leaf per replicate was collected for each treatment and immediately placed in buffer (150 mm NaCl, 25 mm MES, pH 6-2). Apoplast extractions were collected as described by Klement having substituted buffer (150 mM NaCl, 25 mm MES. pH 6.2) for water.
# The specific activity of sugar beet apoplastic B-1,3-glucanase was determined by measuring the release of glucose units from laminarin. Sodium acetate buffer (100 IJI, pH 5.0, 100 mM) containing 0.5% laminarin and 0.5 ug-2.0 ug apoplastic protein (plants per treatment replicated 3 times) was incubated at 3rc for 30-60 min. Following incubation, 900 ul of water and 1 ml of alkaline copper reagent was added to each 2 reaction. The tubes were then placed into a boiling water bath for 10 min. After cooling on ice, 1 ml arsenomolybdate color reagent was added to each reaction. Once the bubbling had subsided, 10 ml of water were added to each tube before reading the A660.
# [4] = system: Fusarium culmorum isolate 2279; set-up: species or system spring wheat; conditions: in vivo
# [5] = system: B-1,3-glucanase; assay: Aniline blue plate assay for B-glucanase activity (screening); type: in vivo, sugar beet; conditions: cumulative results, 6 days after treatment
# Method: as §1
# Apoplastic protein (0.75, 0.50, and 0.25 ug for each sample in replicates of 3) was added to 3-mm diameter wells in a 0.5% agarose gel containing 0.005% aniline blue (MCB) and 0.5m.1/ml laminarin (from Laminaria digitata, Sigma) in a 14 cm diameter glass petri plate, along with laminarinase (Penicillium spp., Sigma) standards (2×10.5−2×10^−3 units of lamina˜inase). The plates were incubated at 30° C. for 18-24 hours. Following Incubation, the pink lytic zones on a blue background were measured while the plate was on a white light source. Specific activity (ug of glucose released/min/mg of apoplastic protein) was determined by comparison of the lytic zone diameter of the standards and the apoplastic samples.
# [6] = system: chitinase and B-1,3-glucanase; assay: Combined glycol chitin and aniline blue plate assays as predictor of SAR induction; type: in vivo, sugar beet; set-up: key: ✓: correctly identified all SAR-inducing isolates, indicated by check marks in Table 5; conditions: identified as SAR-inducer by increased activity of both defense proteins
# Excerpt: There may be circumstances where the occurrence of chitinase and B-glucanase alone is not correlated with disease control (Punja, 2001), especially with fungal pathogens, since the enzymes function synergistically (Melchers and Stuiver, 2000). Therefore examination of the defense proteins together provides a more accurate prediction of disease control capability. Based on the assumption that increased activity for both defense proteins indicated SAR-inducing capacity, combined results from the glycol chitin and aniline blue plate assays correctly identified all SAR-inducing isolates, indicated by check marks in Table 5.
# [7] = system: Peroxidase; assay: Apoplastic peroxidase activity (guaiacol reagent); type: in vivo, sugar beet; conditions: distal leaves, six days post treatment
# Method: The concentration of protein as adjusted to give a change in absorbance units greater than 0.100, but less than 0.200, per minute. Specific activity was expressed as the increase inabsorbance (A470) over time (2 min) per mg of protein, as determined using Bradford reagent (BioRAD).
# [8] = system: salicylic acid; set-up: species or system sugar beet; conditions: in vivo
# [9] = system: Cercospora beticola; set-up: species or system sugar beet; conditions: in vivo
# [10] = system: hydrogen peroxide production; assay: Phenol red oxidation assay for biphasic hydrogen peroxide production in protoplasts and leaf disks; type: cell-based, sugar beet
# Method: Sugar beet protoplasts were isolated from sugar beet leaves to provide a medium to measure hydrogen peroxide production. Sugar beet leaves were gently brushed on the adaxial and abaxial surfaces with a 50 ft bristle brush to create small abrasions. The leaves were then cut into 1 cm strips and vacuum infiltrated for 5 min with 0.7 M sucrose containing 3.8% CaCL2, CPW salts (Frearson et al, 1973), 1.2% cellulase (Sigma), and 0.4% macerozyme (ICN Biomedicals). The infiltrated leaves were incubated in the 0.7M sucrose-salt and enzyme solution for 24-48 hours in the dark. […]
# To determine if the Bacillus strains elicited biphasic hydrogen peroxide production in sugar beet, phenol red oxidation assays were performed according to Pick and Keisari (1980). […] The amount of hydrogen peroxide produced from protoplasts in response to treatment with a Bacillus control agent was calculated as follows: amount of hydrogen peroxide produced in Bacillus protoplast reactions—(amount of hydrogen peroxide produced in protoplast only reactions+amount of hydrogen peroxide produced in Bacillus-only reaction). The amount of hydrogen peroxide produced by the leaf disks in response to Bacillus treatment was calculated as follows: amount of hydrogen peroxide produced by Bacillus-treated leaf disks-amount of hydrogen peroxide produced by leaf disks only reaction.
# [11] = system: Cercospora beticola; set-up: species or system sugar beet; conditions: in vivo; remark: listed apart in the source
# [12] = system: Chitinase; assay: Chitinase specific activity of apoplastic protein by plate assay, six days post treatment; type: in vivo, sugar beet; conditions: distal leaves
# Method: as §2
# Chitinase Specific Activity Determination by Plate Assay Sodium phosphate buffer (pH 5.0, 0.01 M) containing 1 agarose and 0.1% glycol chitin was added to a 9 cm diameter glass petri dish. Wells, 3 mm diameter, were excised from the agarose (three per sample for each of the three replicates per treatment). Dilutions of apoplastic protein (0.7, 0.35, and 0.23 ug) and chitinase standards (chitinase from Streptomycesgriseus Sigma) were loaded into the wells. The plate was incubated at 37° C. for 24 h. Following the incubation, 50 ml of 500 mMTris-HCl (pH 8.9) containing 0.01% fluorescent brightener was added to the plate and incubated for 10 min. The plate was then quickly rinsed 3× with water, flooded with water, and destained overnight in the dark. Non-fluorescent lytic regions on a fluorescent background were measured while the plate was on an uv light source. Specific activity (mg of N-acetyl-n-glucosamine released /hr /mg of apoplastic protein) was determined by comparison of the diameters of the lytic regions for the standards and the lytic regions for the apoplastic protein samples [55]. Results
# [13] = system: Botrytis cinerea; set-up: species or system Arabidopsis thaliana; conditions: in vivo
# [14] = system: C. beticola; assay: Field studies of Cercospora leaf spot control, Sidney, Mont.; set-up: species or system sugar beet; conditions: in vivo
# Method: Field studies were conducted at the Eastern Agricultural Research Center in Sidney, Mont. from 1996 through 2003. Sugar beet variety ‘Beta 1996’ was planted the first year, VDH 66140 was planted the second year, HH88 the third year, KW2262 the fourth year and Beta 2185 the fifth, sixth, and seventh years. All cultivars were equally susceptible to C. beticola infection (BetaSeed, Shakopee, Minn., U.S.A.). […] In the last two years, freshly grown, washed cells were harvested from a 24 h tryptic soy broth culture grown at room temperature and prepared as described above, and applied to the plants. Fungicide treatments included triphenyltin hydroxide (TPTFI, SuperTin, Griffin L.L.C.), propiconazole (Tilt, Syngenta Crop Protection, Inc) and tetraconazole (Eminent, Sipeam Agro USA Inc.) that were applied at 390, 253 and 876 g ai ha^−1, respectively. All treatments were applied at 1761 ha^−1 using a CO2 backpack sprayer with a 4-nozzle boom starting at disease onset and continued at 14 day intervals for a total of four sprays. Plots were arranged “in a randomized complete block design. with six replicates per treatment. […] Area under the disease progress curve (AUDPC) was calculated for treated and untreated plants and percent disease control was determined as follows: 1-([…])*100. […]
smiles,measurement,setting,value
"CSC(=O)c1cccc2nnsc12 [ASM, Acibenzolar-S-methyl]",Glycol chitin plates,[1],3.09hed
same,activation of NPR1,[2],activated NPR1 by 48 hours
same,Specific Activity Beta-glycanase,[3],198.6 micrograms of glucose released per minute per milligram of apoplastic protein
same,Disease Severity Index (%),[4],60.43% and 46.88% and 42.73 b % and 48.97% and 37.53 ab % and 47.31 b %
same,Aniline blue plates,[5],5.70a
same,Aniline blue and glycol chitin plates,[6],✓
same,Specific Activity Peroxidase,[7],71.4 changes in absorbance (470 nm) per minute per milligram of apoplastic protein
same,total SA levels over a 48 hour sampling scheme versus time zero,[8],lack of SA accumulation
same,% Reduction at 21 DPC,[9],63.6% and 64.6%
same,biphasic hydrogen peroxide production,[10],did not induce biphasic hydrogen peroxide production
same,disease reduction,[11],50%
same,Specific Activity Chitinase,[12],1.26 milligrams of N-acetyl-n-gluco
"C=CCOC1=NS(=O)(=O)c2ccccc21 [PBZ, Probenazole]",% disease reduction in comparison to distilled water,[13],41.9 c %
"O=C(O)c1ccccc1O [SA, salicylic acid]",activation of NPR1,[2],activated NPR1 by 48 hours
"[OH][Sn]([c]1ccccc1)([c]1ccccc1)[c]1ccccc1 [TPTH, triphenyltin hydroxide]",Disease Reduction by Year,[14],81% and 90% and 94% and 72% and 88^d %
"O=P(O)(O)CCCl [ethephon, 2-chloroethylphosphonic acid]",% disease reduction in comparison to distilled water,[13],28.1 b %
CC/C=C\CC1C(=O)CCC1CC(=O)OC (centres unmarked) [methyl jasmonate],% disease reduction in comparison to distilled water,[13],49.9 d %
